Values of other authors as cited in patent US20090110724A1, “COMPOSITIONS AND METHODS FOR TREATMENT OF PAIN” (Everett Laboratories, Inc., priority 2007, published 2009).

How the values were obtained:
[1] = cold water
[2] = tested on: COX-3; conditions: Simmons et al. 2002

For `C=CCC1(CC(C)C)C(=O)NC(=O)NC1=O` [Butalbital, 5-allyl-5-isobutylbarbituric acid], the solubility [1] is given as “slightly soluble”.

In the case of `CC(=O)Nc1ccc(O)cc1` [acetaminophen, N-(4-hydroxyphenyl)acetamide], the “inhibition of COX-3” value [2] is given as “strong inhibition”.
